Assay results published in patent publication US9329170B2, “Single cell gene expression for diagnosis, prognosis and identification of drug targets” (The Board of Trustees of the Leland Stanford Junior …, priority 2009, dated 2016).

Tested on: murine breast cancer stem cells
Test: clonogenic ability of murine breast cancer stem cells
Format: cell-based
Conditions: short, 24 hour exposure to the inhibitor; p<0.02, t test
Method: Many of these genes have been linked to self renewal and cancer. These include the insulin growth factor binding partner IGFBP3, the HOX family members HOXA3, HOXA5, ME1S1 as well as transcription factors like ETS1, ETS2, RUNX2 and STAT3. It was tested whether the transcription factor STAT3 is a bona fide cancer stem cell regulator. STAT3 plays a role in the maintenance of both ES cells and HSCs. […] Next, when we examined immunochemistry analysis of breast tumors the STAT3 positive cells tended to be concentrated on the invasive edge of the cancer and the protein was not seen in the more differentiated-looking cells in the interior parts of tumors. Finally, there are small molecule inhibitors of STAT3. Such inhibitors can be tested in cancer stem cell models. The effect of the STAT3 inhibitor cucurbitacin on the clonogenic ability of murine breast cancer stem cells was tested.

With cucurbitacin the “reduction of the number of colonies” value was roughly 50%.
